# Entries after “also recorded” stand apart in the source; their conditions may differ.
# Legend:
# [1] = test system: Marchigian Sardinian alcohol-preferring (msP) rats; experiment: Subchronic (7 days) voluntary ethanol intake, 10% alcohol available 24 hours/day; assay type: in vivo, rat
# Method: At the beginning of the experiments, msP rats were allowed free choice between water and 10% (v/v) alcohol 24 h/day for at least 15 days. The fluids were offered in graduated drinking tubes equipped with metallic drinking spouts. The position (to the right or left) of alcohol and water drinking tubes was changed daily to avoid the development of side preference. Water and food were available ad libitum, while alcohol access was either restricted to 2 hours/day (Examples 1 and 2) or was available 24 hours/day (Examples 3 and 4). Alcohol, water and food intakes were measured.
# […]. Before starting the treatment, rats were trained to gavage administration procedures for three days, during which they received vehicle (distilled water).
# Alcohol, water and food intakes were monitored at 2, 8 and 24 hours. Fluids and food intakes were monitored for three additional days after the end of the drug treatment period.
# […]. According to a between-subject design, four groups of msP rats (N=9/group) were prepared as described in Example 3. […] […]. Alcohol, water and food intakes were monitored at 2, 8 and 24 hours. Fluids and food intakes were monitored for three additional days after the end of the drug treatment period.
# CD mice = experiment: Tail-flick test, morphine-induced analgesic tolerance; assay type: in vivo, mouse; conditions: pioglitazone alone 10 or 30 mg/kg
# Method: All procedures were conducted in adherence to the European Community Council Directive for Care and Use of Laboratory Animals.
# Mice were divided into 6 groups. Group 1 (n=8) received drug vehicles (veh/veh). […] Animals were treated twice daily (between 9:00 and 10:00 a.m. and 9:00 and 10:00 p.m.).
# Morphine hydrochloride was purchased from Salars (Milano, Italy). Morphine (30 mg/kg) was dissolved in NaCl […] and was injected intraperitoneally (IP) twice a day at the indicated doses in a volume of 0.2 ml per mice. […] It was dissolved in distilled water and was administered per o.s. at the doses of 10 mg/kg and 30 mg/kg in a volume of 0.6 ml per mice.
# Two different tests were used to monitor analgesic responses. The tail-flick test was performed 45 min after the morning injection of morphine, and the tail-immersion test was performed 45 min after the evening injection of morphine.
# For the tail-flick test, each mouse was gently restrained in a soft tissue pocket, and the tail (1 cm from the tip) was exposed to a hot light beam. Latency for tail-flick was measured with a 6 seconds cut-off time. For the tail-immersion test, each mouse was restrained in a soft tissue pocket, and the distal half of the tail dipped into a water bath set at 52 C°. Latency for removing the tail from the hot water was measured with a 10 seconds cut-off time.
# alcoholic patients = experiment: Observational study of alcohol abuse in human patients; assay type: in vivo
# Source text: ACT)+psychotherapy. […] Patients were instructed to record in a personal logbook the number of drinks per day and the time of the day drinks occurred. At the end of the study, the logbooks were returned to the clinical personnel who analyzed the data. […] In addition, biochemical parameters to ascertain alcohol detoxification and to measure recovery of physiological functions (i.e., hepatic function) were monitored monthly. Hematological parameters measured included: mean corpuscular volume (MCV); gamma-GT; aspartate aminotransferase (AST); alanine aminotransferase (ALT); and carbohydrate-deficient transferring (CDT). MCV and CDT are biomarkers for ethanol consumption, and GGT, ALT and AST are biomarkers for hepatic functionality. Data were analyzed by analysis of variance followed by Newman-Keuls post hoc tests when appropriate.
# heavy tobacco smokers = experiment: Pilot clinical study in heavy tobacco smokers; assay type: in vivo, human
# Method: Data were recorded for two months, during which patients were seen by the physician every other week. Patients were instructed to record in a personal logbook the number of cigarettes per day and the time of the day smoking occurred. At the end of the study, the logbooks were returned to the clinical personnel who analyzed the data. […] During the first month of treatment, every two weeks, ACTH and cortisol levels were also monitored to evaluate HPA activation before and during treatment.
# Wistar rats = experiment: Alcohol withdrawal score after six days of intermittent alcohol intoxication; assay type: in vivo, rat
# Method: Male Wistar rats were subjected to a six days of intermittent alcohol intoxication. […] The first ethanol dose was given at the beginning of the dark phase. The other 3 daily doses were administered at intervals of 3 hours. Rats were not injected during the light phase of the light/dark cycle. […] Behavioural signs of withdrawal included: (1) presence of the ventromedial distal flexion response; (2) tail stiffness/rigidity; and (3) tremors (Schulteis et al. 1995). […] Schulteis, et al., 1995). All signs were cumulated to yield an overall withdrawal severity score.
# Long Evans rats = experiment: FR5 nicotine self-administration; assay type: in vivo, rat; conditions: pioglitazone 30 mg/kg OS 12 hours and 1 hour before session; p<0.05
# Method: Bupropion hydrochloride (Sigma, Milan, Italy) was dissolved in saline. Nicotine tartrate (Sigma, Milan, Italy) was dissolved in isotonic saline at a concentration of 0.03 mg/0.1 ml free base. The pH of the nicotine solution was adjusted to 7 with dilute NaOH. Drug or vehicle solution was infused at a volume of 0.1 ml over 4 s.
# Male Long Evans rats weighing between 180 and 200 g at the time of arrival in the lab were used. The rats were housed in groups of three in a humidity- and temperature-controlled (22° C.) vivarium on a 12 h:12 h reverse light/dark cycle (on, 17:00; off, 05:00) with ad libitum access to food and water. One week after arrival, the rats were subjected to surgery, and a silastic catheter was implanted into the right jugular vein.
# After the successful completion of cocaine training, rats were allowed to self-administer nicotine at the 0.03 mg/kg/infusion dose by switching the delivery of cocaine for the delivery of a nicotine infusion. Nicotine self-administration training continued until stable baseline of responding was established (less than 20% variation for 3 consecutive days calculated for each single rat). At this point, drug testing began.
# . […] A 3-day interval was allowed between drug testing. During these intervals, nicotine self-administration was continued to re-establish lever responses baseline.
# Statistical significance was set at P<0.05
# [2] = pioglitazone 30 mg/day or naltrexone 50 mg/day + psychotherapy
# [3] = pioglitazone 10 and 30 mg/kg, p<0.01
smiles,measurement,setting,value
CCc1ccc(CCOc2ccc(CC3SC(=O)NC3=O)cc2)nc1.Cl (centres unmarked) [pioglitazone],"voluntary ethanol intake, overall",[1]; pioglitazone 10.0 or 30.0 mg/kg OS twice a day for 7 days,significantly reduced
same,ethanol intake starting from the 4th day of treatment,[1]; pioglitazone both doses (10 and 30 mg/kg),significantly reduced
same,"ethanol intake, onset of effect","[1]; pioglitazone highest dose (30 mg/kg), 7 days",appeared from the first day of treatment
same,analgesic responses (tail-flick),CD mice,did not differ from controls
same,"hepatic parameters (GGT, ALT, AST)",alcoholic patients; 2-month treatment,more pronounced
same,"Anxiety Score, STAY-Y1 scale (mean score values)","alcoholic patients; T = 1.1 (month 1, week 1)",58
same,Depression Scale M.A.D.R.S (mean score values),alcoholic patients; T = 1.3,10
same,Depression Scale M.A.D.R.S (mean score values),alcoholic patients; T = 1.4,11
same,Depression Scale M.A.D.R.S (mean score values),alcoholic patients; T = 2.3,10
same,"depression score, time course",alcoholic patients; during treatment with pioglitazone 30 mg/day,decreased starting from the second week of treatment
same,"effect on daily drinks, comparison of drugs","alcoholic patients; month 2 week 2 (T2.2) to month 2 week 4 (T2.4), p<0.001",significantly higher than that of naltrexone
same,"blood parameters (MCV, CDT, GGT, ALT, AST)",alcoholic patients; pioglitazone 30 mg/day,rapid normalization
same,progressive decrease in anxiety score during treatment,alcoholic patients; pioglitazone 30 mg/day,highest effect
same,progressive decrease in obsessive compulsive score for alcohol (OCDS),alcoholic patients; pioglitazone 30 mg/day,extremely robust; also recorded: consistently reduced
same,daily ethanol intake (number of daily drinks),alcoholic patients; [2],significantly reduced
same,number of abstinence days,alcoholic patients; [2],increased; also recorded: highest effect
same,"CDT and AST, naltrexone versus pioglitazone",alcoholic patients; post hoc,No significant difference
same,OCDS versus controls,"alcoholic patients; post hoc, P<0.001",statistically significant difference
same,all five blood biomarkers versus controls (psychotherapy alone),"alcoholic patients; post hoc, P<0.001",statistical difference
same,"reducing the values of MCV, GGT and ALT, comparison of drugs","alcoholic patients; post hoc, P<0.001",more effective than naltrexone
same,"MADRS depression score, pioglitazone versus naltrexone","alcoholic patients; post hoc, p<0.001",significantly different
same,"OCDS, pioglitazone versus naltrexone","alcoholic patients; post hoc, p<0.001",more effective than naltrexone
same,"anxiety score, pioglitazone versus naltrexone","alcoholic patients; post hoc, p<0.001",more effective than naltrexone
same,"number of abstinence days, comparison of drugs",alcoholic patients; second month of therapy (T 2.1-T2.4),significantly higher
same,"weekly smoked cigarettes, pioglitazone versus varenicline (post hoc)","heavy tobacco smokers; human, in vivo",no significant differences
same,craving score (visual analogic craving scale),heavy tobacco smokers; over treatment,highest reduction
same,STAI anxiety score,heavy tobacco smokers; over treatment weeks,significantly reduced
same,weekly smoked cigarettes compared to bupropione (post hoc),heavy tobacco smokers; p<0.05,significant difference
same,subjects reaching complete abstinence,"heavy tobacco smokers; pioglitazone 4 patients, varenicline 3 patients",One
same,alcohol withdrawal signs,"Wistar rats; pioglitazone 10 mg/kg and 30 mg/kg, 12 hours and 1 hour before rating",significantly reduced
same,tail rigidity,Wistar rats; [3],highly significant effect
same,tremors,Wistar rats; [3],highly significant effect
same,ventromedial limb retraction,Wistar rats; [3],highly significant effect
same,rats showing seizures during withdrawal,Wistar rats; pioglitazone treated rats (two out of 7 vehicle animals showed convulsion),none of the 12 rats
same,nicotine self-administration,Long Evans rats,significantly reduced

# — US20130296347A1, “Compositions and Methods for Prophylaxis and Treatment of Addictions” (Omeros Corporation, priority 2007, published 2013)
